Laboratory results published in patent US12102633B2, “Spirolactone compounds” (Quixgen, Inc., priority 2017, dated 2024).
Entries after “also recorded” stand apart in the source; their conditions may differ. One block for each molecule: values may come before it.

How the values were obtained:
[1] = test system: T1, Mouse ACC (ACC protein purified from liver); test: Mouse ACC enzymatic activity assay; type: biochemical; details: read-out: EA-CoA mACC IC50
T1 construct: ACC protein was purified by taking advantage of the biotinylation in the carboxylase domain
Experimental: ACC protein was purified by taking advantage of the biotinylation in the carboxylase domain. Male C57BL/6J mice (Jackson Laboratory) at 8-12 weeks of age were euthanized by using CO2 inhalation method and liver was immediately frozen on dry ice. To 100 mg liver was added 1 mL ice-cold tissue lysis buffer (20 mM Tris-HCl pH 7.5, 150 mM NaCl, 1 mM Na2EDTA, 1 mM EGTA, 1% Triton, 2.5 mM sodium pyrophosphate, 1 mM 3-glycerophosphate, 1 mM Na3VO4, 1 μg/mL leupeptin, 1 tablet of protease inhibitor cocktail (Roche) per 10 mL lysis buffer) followed by homogenization on ice with Power Gen 125 homogenizer (Fisher Scientific). After 30 min incubation on ice, tissue lysate was passed through a 10 mL syringe with 18½ G needle for 10 times to shear DNA. The lysate was then subject to 17.5%-35% saturated ammonium sulfate precipitation by adding 880 mg ammonium sulfate powder (Sigma) to 10 mL liver lysate in 10 min with stirring on ice. Sample was centrifuged at 14,000 rpm (Eppendorf) at 4° C. for 10 min and supernatant was saved for further precipitation by adding 880 mg ammonium sulfate powder to 10 ml supernatant in 10 min with stirring on ice. Sample was centrifuged at 14,000 rpm at 4° C. for 10 min. Supernatant was discarded and pellet was dissolved in 10 mL sample buffer (100 mM Tris-HCl, pH 7.5, 1 mM EDTA, 0.1 mM DTT, 0.5 M NaCl, and 5% glycerol). The sample was then added with 1 mL of Strep Mag beads slurry (Genscript) and rotated at 4° C. for 1 hour. Supernatant was discarded and beads were washed with sample buffer for 3 times. Protein was then eluted by adding 10 mL of 2 mM biotin (Promega) prepared in sample buffer. The eluate was then dialyzed at 4° C. for 1 hour by using Slide-A-Lyzer™ Dialysis Cassettes 10K MWCO (Thermo Fisher Scientific) against 3 changes of 200 mL dialysis buffer (50 mM HEPES, pH 7.5, 0.1 mM DTT, 1.0 mM EDTA, and 10% glycerol). Total protein concentration was then quantitated by using BCA protein assay kit (Pierce).
For ACC enzymatic activity assay, 1 μL serial diluted compounds prepared in DMSO in duplicate were mixed with 8 μL dialyzed sample at 37° C. for 10 min. Ninety one L of reaction buffer (50 mM HEPES pH 7.5, 10 mM MgCl2, 2.0 mM DTT, 0.5 mM acetyl-CoA, 4.0 mM ATP, 15 mM ^13C-NaHCO3, 0.75 mg/mL BSA, 0.5 mM sodium citrate) was added to the tube and mixed thoroughly. After incubation at 37° C. for 1 hour, 300 μl ice-cold quenching buffer (acetonitrile:methanol=1:1, 20 μM carbutamide as internal standard) was added to each tube and mixed well to terminate the reaction. Samples were centrifuged at 14,000 rpm for 10 min (Eppendorf) and supernatant was loaded onto LC-MS/MS for quantitation of malonyl-^13C-CoA (Gao et al., Journal of chromatography B, Analytical technologies in the biomedical and life sciences 853, 303-313 (2007)).
Shimadzu LC system was used for sample analysis consisting of system controller (Shimadzu CBM-20A), autosampler (Shimadzu SIL-20A), pump A and B (Shimadzu LC-20AD), column oven (Shimadzu CTO-20A), and analytical column (Phenomenex Gemini 5u C18 11A, 100×2 mm). LC was running at 200 μL/min in the binary gradient mode with mobile phase A (5 mM Ammonium Acetate and 5 mM DMBA in water (1,3-Dimethylbutylamine)) and B (methanol). The samples were analyzed on an AB Sciex QTrap4000 LC-MS/MS triple quadrupole mass spectrometer (Applied Biosystems). Malonyl-CoA and malonyl-13C-CoA were monitored in positive ion mode following MRM transitions at 854.2/347.1 and 855.1/246.1, respectively. The product and internal standard were coeluted to the mass spectrometer in 3 s with 50% H2O, 25% MeCN, 25% acetone, and 5 mM ammonium acetate. Ion chromatograms were integrated using the Analyst 1.5.2 software. Peak area ratios were compared against a standard curve and final cellular concentration of malonyl-CoA or production rate of malonyl-13C-CoA was calculated as pmoles/mg protein per minute.

3T3-L1 adipocytes = test: Lipogenesis of 3T3-L1 adipocytes; type: cell-based; details: Mus musculus, TG readout, read-out: LG-3T3 IC50
Experimental: 3T3-L1 fibroblast cells (Zen-Bio) were grown in 96-well culture microplate (Corning) with growth media to around 90-100% confluency. Culture media was changed to differentiation media (growth media supplemented with 3-Isobutyl-1-Methylxanthine 500 μM, Dexamethasone 1 μM, insulin 10 μg/mL, and rosiglitazone 2 μM) plus serially diluted compounds prepared in DMSO (1:1000 dilution). After incubation for 2 days, media was changed to maintenance media (growth media supplemented with insulin 10 μg/mL) plus serially diluted compounds prepared in DMSO (1:1000 dilution) for around 1 week with media changed every 2 days. Upon completion of the treatment, culture media are discarded and 200 μL 0.01% SDS was added to each well and shaken for 1 hour to lyse the cells. Cell lysates were then transferred to 400 μL Folch's solution (chloroform: methanol=2:1) and mixed well. After centrifuge at 2,000 rpm for 20 min, 200 μL of the lower organic phase was transferred to a plate with 10 μL sample buffer (chloroform:Triton-100=3:1). Samples were blown dried under nitrogen and 200 μL triglyceride (TG) quantification reagent (Thermo Fisher Scientific) was added, mixed, and incubated at 37° C. for 30 min. TG concentration was determined by reading absorbance at 535 nm (Dynex MRX^e Magellan Biosciences) and calculated from standard curve.

Human sebocytes = test: Proliferation of human sebocytes; type: cell-based; details: 24 hours, MTT, read-out: AP-Sebo IC50
Experimental: Human sebocytes (Celprogen) and keratinocytes (ATCC) were grown in 96-well culture microplate (Coming) with growth media to around 50% confluency. Media was changed to growth media mixed with serially diluted compounds in DMSO (1:1000 dilution). After treatment for 24 hours, media was changed to 100 μL phenol red free DMEM and cell numbers were quantitated by using Vybrant® MTT Cell Proliferation Assay Kit (Molecular Probes). Ten μL of 12 mM MTT stock solution was added to each well and the microplate was incubated at 37° C. for 4 hours. Then 100 μL of the SDS-HCl solution was added to each well and mixed thoroughly using a pipette. The microplate was incubated at 37° C. for 4 hours in a cell culture incubator. The microplate was mixed again using a pipette and absorbance was read at 570 nm (Dynex MRX^e Magellan Biosciences). Effect of compounds on proliferation of human keratinocytes was calculated by % of DMSO vehicle control.

[2] = PK study in male C57 mouse for Examples 14 and 15; type: in vivo; details: for concentration at 0.5 h: 0.50 h
Experimental: Pharmacokinetic studies were carried out with male C57 mouse. Compounds (Example 14 and Example 15) were each formulated in 5% DMSO+10% Solutol HS 15+85% Saline, and dosed at 1 mpk for IV injection (5 mL/kg) and 10 mpk for oral gavage (10 mUkg). Plasma samples at various time points were quantitated with LC-MS. Data reported were average of three mice.
Tables 1 and 2 below show plasma concentrations (ng/mL) and PK parameters of Example 14 in male C57 mouse after 1 mpk IV injection and 10 mpk PO gavage, respectively. The plasma concentration (ng/mL) of the acid compound, Example 15, was also measured and reported below.
Tables 3 and 4 below show plasma concentrations (ng/mL) and PK parameters of Example 15 in male C57 mouse after 1 mpk IV injection and 10 mpk PO gavage, respectively.

[3] = test system: liver triglycerides (TG) in C57BL/6J mice; test: Chronic treatment for reducing liver triglycerides in C57BL/6J mice; type: in vivo, mouse; details: male C57BL/6J mice; 30 mg per kilogram body weight in PEG400, oral gavage once per day for 2 weeks; FIG. 1, vs vehicle
Experimental: Male C57BL/6J mice (Jackson Laboratory) at around 9 weeks of age were treated with vehicle (0.5% methylcellulose or PEG400) or Example 14 (30 mg per kilogram body weight, dosing solution prepared in PEG400) and Example 20 (20 mg per kilogram body weight, dosing solution prepared in 0.5% methylcellulose) by oral gavage at ˜9:00 am, once per day for 2 weeks. Concentrations of Example 14 and Example 20 were 15 mg/ml and 2 mg/ml, respectively. The dosing volumes of Example 14 and Example 20 were 2 ml per kilogram body weight and 10 ml per kilogram body weight, respectively. After 14-day treatment, animals were euthanized in CO2 at 2 hours post dose and liver was frozen and kept on dry ice. Liver TG was measured by extracting lipids with chloroform:methanol 2:1 (v/v) followed by quantitation with Infinity™ Triglycerides Reagent (Thermo Scientific).

[4] = male, C57, mouse, plasma, iv, 1 mg/kg, Example 14 dosed 1 mpk IV, analyte = labelled compound
[5] = male, C57, mouse, plasma, po, 10 mg/kg, Example 14 dosed 10 mpk PO gavage, analyte = labelled compound
[6] = plasma, 1 mg/kg, Example 14 dosed 1 mpk IV

- IC50 [1]: 11.3 nM
SMILES: CCc1ccc2c(c1)C(=O)OC1(CCN(C(=O)c3cc(OC)c4cccc(OC)c4n3)CC1)C2 [Example 4, 1′-(4,8-dimethoxyquinoline-2-carbonyl)-7-ethylspiro[isochroman-3,4′-piperidin]-1-one]
- IC50 (3T3-L1 adipocytes): 27.7 nM
- IC50 (Human sebocytes): 148 nM

- IC50 [1]: 3.4 nM
SMILES: CCc1ccc2c(c1)C(=O)OC1(CCN(C(=O)c3cc(OC)c4cccc(OC)c4c3)CC1)C2 [Example 3, 1′-(4,8-dimethoxy-2-naphthoyl)-7-ethylspiro[isochroman-3,4′-piperidin]-1-one]
- IC50 (3T3-L1 adipocytes): 1.4 nM
- IC50 (Human sebocytes): 44.4 nM

- Plasma Concentration, Mean ([2]; Example 14 dosed 1 mpk IV, 8.00 h, analyte = labelled compound): BLQ
- Plasma Concentration, Mean ([2]; Example 14 dosed 1 mpk IV, 24.00 h, analyte = labelled compound): BLQ
- F ([2]; Example 14 dosed 10 mpk PO gavage): 88%
- Plasma Concentration, Mean ([2]; Example 14 dosed 10 mpk PO gavage, 24.00 h, analyte = labelled compound): BLQ
- MRT ([2]; male, C57, mouse, plasma, iv, 1 mg/kg, Example 14 dosed 1 mpk IV): 24.6 min
- concentration at 0.08 h ([2]; male, C57, mouse, plasma, iv, 1 mg/kg, Example 14 dosed 1 mpk IV, 0.08 h, analyte = labelled compound): 1880 ng/mL
- concentration at 0.25 h [2, 4]: 1080 ng/mL
- concentration at 0.5 h [2, 4]: 521 ng/mL
- concentration at 1 h [2, 4]: 199 ng/mL
- concentration at 2 h [2, 4]: 30 ng/mL
- concentration at 4 h [2, 4]: 4.4 ng/mL
- concentration at 0.25 h [2, 5]: 3660 ng/mL
- concentration at 0.5 h [2, 5]: 5970 ng/mL
- concentration at 1 h [2, 5]: 3160 ng/mL
- concentration at 2 h [2, 5]: 1010 ng/mL
- concentration at 4 h [2, 5]: 345 ng/mL
- concentration at 8 h ([2]; male, C57, mouse, plasma, po, 10 mg/kg, Example 14 dosed 10 mpk PO gavage, 8.00 h, analyte = labelled compound): 125 ng/mL
- Cmax [2, 5]: 6330 ng/mL
- MRT [2, 5]: 96 min
- Tmax [2, 5]: 25.2 min
- Vd [2, 6]: 0.49 L/kg
- clearance [2, 6]: 18.5 mL/min/kg
- half-life [2, 6]: 19.2 min
SMILES: COC(=O)c1cncc(-c2ccc3c(c2)C(=O)OC2(CCN(C(=O)c4cc(OC)c5cccc(OC)c5n4)CC2)C3)c1 [Example 14, methyl 5-(1′-(4,8-dimethoxyquinoline-2-carbonyl)-1-oxospiro[isochroman-3,4′-piperidin]-7-yl)nicotinate]
- Liver TG [3]: reduced liver triglycerides; also recorded: reduced liver TG
